Assay [1] concerns MHCC97H and SMMC 7721 cells. The assay can be described thus: CCK8 cell viability screen of mulberry active substances. Type of assay: cell-based, human. The note with it: 10 μM, 48 h. The method, then: The CCK8 assay is used to investigate the effect of compounds on cell viability by measuring the amount of formazan dye. Firstly, 8000 cells were inoculated into each well of the 96-well plate with three replicates per condition. At the same time, add the corresponding mulberry active substances. After 48 h of incubation, 20 μL of the Cell Counting Kit-8 (CCK8) reagent (Beyotime, Shanghai, China) was added to each well. After being cultured under 37 °C and 5% carbon dioxide for 2–3 h, the absorbance was measured at 450 nm.

Assay [2] deals with HCC cells (MHCC97 H and SMMC 7721). As to the kind of experiment: Colony formation assay. Type of assay: cell-based, human. The method, then:
Using a colony formation assay, the effect of KA on the colony-forming ability of HCC cells was evaluated. A total of 1000–2000 cells, along with KA, were seeded into each well of a six-well plate. During this period, fresh culture media and KA were replaced multiple times. After 2 to 3 weeks of incubation, the colonies were stained with crystal violet (Beyotime, Shanghai, China) and subsequently quantified in each well using ImageJ 1.52a software.

Assay [3] concerns MHCC97 H cells. As to the kind of experiment: Transwell migration screen of selected compounds. Type of assay: cell-based, human. The note with it: compounds at an IC50 concentration. As for the experimental part: (§1) The Transwell assay measured the migration and invasion of cells by calculating the number of cells that passed through the material. Prior to the Transwell migration assay, cells were serum-starved in FBS-free culture medium for 24 h. The cells were then detached using trypsin, washed 1–2 times with PBS, and resuspended in DMEM. Approximately 50,000–100,000 cells were seeded into the upper chamber of the Transwell insert. The lower chamber was filled with 600 μL of complete medium containing the test compound. The Transwell system was incubated for 12 h under standard culture conditions (37 °C, 5% CO2). After incubation, the migrated cells on the lower membrane surface were fixed with 4% paraformaldehyde (PFA) and stained with 0.1% crystal violet. Non-migrated cells remaining in the upper chamber were carefully removed with a cotton swab. Finally, the stained cells were visualized under a microscope. If matrix gel was needed, it should be added according to the instructions (Beyotime, Shanghai, China) before the cells were seeded.

The test system of assay [4] is HCC cells (MHCC97 H and SMMC 7721). As to the kind of experiment: Transwell migration (without Matrix-Gel) and invasion (with Matrix-Gel) assay. Type of assay: cell-based, human. The method, then: as §1, with “The Transwell system was incubated for 12 h under standard culture conditions (37 °C, 5% CO2).” left out
The test system of assay [5] is MHCC97 H cells labeled with luciferase. As to the kind of experiment: In vivo imaging of pulmonary metastasis after tail vein injection. The arrangement: species or system BALB/c-nu mice. The note with it: 30 mg/kg intraperitoneal, once every two days, 32 days. An excerpt: Thirty-six female BALB/c-nu mice, four weeks old (supplied by Slike Jingda Laboratory Animal Co., Ltd., Changsha, China; Animal qualification number: SCXK-2019-0004), were housed in an SPF room. […] Therefore, female mice were selected for this study; 12 mice were used to establish the hepatocellular carcinoma xenografts. MHCC97 H cells (1 × 10^5 cells) were slowly injected into the left lobe of the mouse liver after being anesthetized with isoflurane. Three days later, the mice received intraperitoneal injections of KA (30 mg/kg) every two days for 45 days. Control mice were administered DMSO injections. Recorded the survival status of the animals. Prior to liver collection, the mice were anesthetized with isoflurane to minimize pain and euthanized by cervical dislocation. Ethics approval serial number: IACUC-20240613-03. Animal experiments were conducted in accordance with the Guide for the Care and Use of Laboratory Animals (Ministry of Science and Technology of China, 2006).
MHCC97 H cells labeled with luciferase (1 × 10^5 cells) were injected into the 4- to 5-week-old female BALB/c-nu mice (SPF grade, average weight 16–18 g) through intravenous injection. Following the injection, luciferase substrate was delivered to the mice via intraperitoneal injection. After a 5-min period of anesthesia with isoflurane, the mice were imaged using an in vivo small animal imaging system. […]

In assay [6] the test system is nuclear translocation of ERK. As to the kind of experiment: ERK nuclear translocation (nuclear/cytoplasmic extraction, immunofluorescence). Type of assay: cell-based, human. The note with it: 10 μM, 48 h, confocal microscopy.
Experimental: After treating HCC cells with KA or DMSO, the cells were collected by cell scraping. Adding an appropriate amount of PMSF and reagent A (Nuclear and Cytoplasmic Protein Extraction Kit, Beyotime, Shanghai, China). Vortexed and then ice bathed for 15 min. Adding the reagent B provided in the kit mentioned before. Then vortexed and ice bathed for 1 min. Vortexed again. Centrifuged at 14,000× g for 5 min. The supernatant was cytoplasmic protein. Adding a certain amount of nuclear protein extraction reagent to the precipitate. Multiple vortices within 30 min. Centrifuged at 14,000× g for 10 min. The obtained supernatant was the nuclear protein.
Assay [7] addresses T1, YWHAB dimer (Homo sapiens, UniProt P31946).
T1 sequence (P31946 1-246): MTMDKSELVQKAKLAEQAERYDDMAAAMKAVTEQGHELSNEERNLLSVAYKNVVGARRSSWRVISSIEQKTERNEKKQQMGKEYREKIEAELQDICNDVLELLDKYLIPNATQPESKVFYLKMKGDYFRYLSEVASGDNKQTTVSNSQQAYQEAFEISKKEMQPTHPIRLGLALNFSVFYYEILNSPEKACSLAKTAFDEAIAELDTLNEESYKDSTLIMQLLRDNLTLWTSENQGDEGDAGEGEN
As to the kind of experiment: Blue-Native PAGE of YWHAB dimer. The note with it: HCC cell lines and FLAG-YWHAB overexpressed HEK 293T cells. Further details: endogenous in cells; host or cells: MHCC97 H and SMMC 7721. It is filed as cell-based. The method, then:
Blue/Clear Native PAGE (Real Times, Beijing, China) is an electrophoretic technique used to separate protein complexes from biological samples. Instead of SDS, Coomassie Brilliant Blue G-250 binds to the protein, imparting a negative charge, allowing separation in the PAGE gel based on the molecular weight of the proteins. HCC cells treated with KA or DMSO for 48 h were collected using a cell scraper and lysed on ice in IP cell lysis buffer for one hour. A suitable amount of 4× BN/CN-PAGE protein loading buffer and 5% G-250 stain (for loading) was added to the supernatant of the protein sample, followed by BN-PAGE electrophoresis in the Native PAGE gel. After electrophoresis and membrane transfer, the PVDF membrane (Millipore, Darmstadt, Germany) was blocked with 5% BSA for two hours at room temperature. HPR-linked primary and secondary antibodies were incubated for detection, and protein bands were visualized using the ECL detection system (Clinx, Shanghai, China)

`CC(C)=CCc1c(-c2ccc(O)c3c2OC(C)(C)C=C3)oc2cc(O)cc(O)c2c1=O` [KA, Kuwanon A]: in assay [1], the “viability of HCC cells (CCK8)” value is given as “significantly inhibited the viability of HCC cells”. The “in vitro colony formation ability under YWHAB overexpression” value in assay [2] (YWHAB-overexpressing HCC cells, KA 15 μM) is reported as “failed to inhibit the in vitro colony formation ability”. For the same molecule, the colony formation ability entry in assay [2] (indicated concentrations of KA, vs DMSO) is recorded as “significantly reduced colony formation ability”. Besides, the “migration of MHCC97 H (Transwell)” value in assay [3] is reported as “significantly inhibited the migration of MHCC97 H”. Further, the “migration/invasion under YWHAB overexpression (wound healing and Transwell)” value in assay [4] (YWHAB-overexpressing HCC cells compared to normal tumor cells, KA 15 μM, 48 h) is listed as “less effect of KA on the migration/invasion”. For the same molecule, in assay [4] (with Matrix-Gel), the “invasive capacity of HCC cells (Transwell)” value is recorded as “inhibited the invasive capacity of HCC cells”. Further, in assay [4] (without Matrix-Gel), the “number of HCC cells migrating through the polycarbonate membrane (Transwell)” value is “significant decrease in the number of HCC cells migrating”. In addition, in assay [5], the “pulmonary metastasis (in vivo imaging)” value is on record as “significantly inhibited the pulmonary metastasis”. Also, in assay [6], the “nuclear translocation of ERK” value is reported as “inhibited the nuclear translocation of ERK”. The “proportion of YWHAB dimer (Native-PAGE)” value in assay [7] is recorded as “proportion of YWHAB dimer had decreased”.

The values are drawn from paper PMC12523843, “Kuwanon A Targeted YWHAB in Hepatocellular Carcinoma Cells to Inhibit the Raf/MEK/ERK Signaling Pathway” (Cells, 2025).
